In patent US20250195498A1, “INHIBITOR OF CELLULAR PURINE NUCLEOTIDE SALVAGE PATHWAY ENZYME FOR USE IN THE TREATMENT AND/OR PREVENTION OF HELICOBACTER PYLORI INFECTION AND/OR DISEASE ASSOCIATED WITH SUCH INFECTION AND PHARMACEUTICAL COMPOSITION COMPRISING THE SAME” (UNIWERSYTET WARSZAWSKI, priority 2022, published 2025):
Like-named read-outs stand apart in the source and are kept apart here.

How the values were obtained:
PNP from E. coli [1] = molecular target: T1, PNP from E. coli (Escherichia coli, UniProt P0ABP8); assay: Inhibition of PNP from E. coli; format: biochemical; settings: previous work of the inventors
[2] = molecular target: T2, PNP from H. pylori strain 26695 (Helicobacter pylori, UniProt P56463); assay: Inhibition of PNP from H. pylori, spectrophotometric phosphorolysis assay; format: biochemical; settings: formycins; kinetic methods of Example 1; read-out: inhibition constant
T2 construct: made in house; host or cells: E. coli
Text: The specific activity of PNP is usually determined using inosine as a substrate, in an assay in which the phosphorolysis product, hypoxanthine, is oxidized to uric acid in a reaction catalysed by xanthine oxidase. However, in the inhibition assay of PNP from H. pylori strain 26695, 7-methylguanosine (m^7Guo) and guanosine (Guo) were used as nucleoside substrates to avoid potential inhibition of xanthine oxidase by the test compounds. Phosphorolysis of these two substrates can be observed using a direct spectrophotometric method in a known manner.
Enzymatic activity was studied in a quartz cuvette with an optical path length of 1 cm or 0.5 cm. The absorbance of the reaction mixture, at the observation wavelength, never exceeded 1.2. The reaction volume was 1 ml or 1.4 ml in cuvettes with optical path lengths of 1 cm and 0.5 cm, respectively. The reaction mixture contained 50 mM Hepes/NaOH buffer, pH 7.0, 50 mM phosphate buffer, pH 7.0 (unless otherwise indicated), nucleoside substrate and inhibitor (with the latter not added to the reference/control reactions). Reactions were usually initiated by adding the enzyme to a cuvette containing the other reaction components. However, in cases where possible slow formation of an inhibitor-enzyme complex was checked, a second variant was also used involving incubation of the enzyme in a reaction mixture containing the inhibitor but lacking the substrate, 7-methylguanosine, and initiation of the reaction by adding this substrate.
In order to determine the inhibition constants and determine the molecular mechanism of inhibition, equations describing different mechanisms of inhibition were fitted to the obtained experimental data. GraphPad Prism 8 program was used. The model best describing the obtained data was selected based on the sum of squares of deviations using the F test for models with different number of parameters and the Akaike criterion (AIC) for models with the same number of parameters.
The following equations were used to describe competitive inhibition, characterized by the inhibition constant Kic, [1], uncompetitive, characterized by the inhibition constant Kiu, [2], non-competitive, characterized by the inhibition constant Kin, [3], and mixed, characterized by the inhibition constants Kiu and Kic, [4] (Segel, 1993):
The last equation can also be represented in the following form, as used by GraphPad Prism software, where Kiu=alpha Kic:
Immucillin A was chosen as the most promising one for potential pharmacological use in combating H. pylori infection because immucillin A has an amino substituent at position 6 of the 9-dazapurine ring, while PNP found in the human body requires a substituent at this position having electron-pairs-hydrogen bond acceptors, such as a substituent in the form of a keto group, to strongly bind the ligand. According to the invention, it is therefore believed that immucillin A will not interact with the host PNP, and thus allow selective inhibition of the PNP from H. pylori. Using the methods described above, the effect of immucillin A on the rate of the 7-methylguanosine (m^7Guo) phosphorolysis reaction catalysed by PNP from H. pylori was examined (FIG. 1). Since it is known (Schramm, 2018) that immucillins form a strongly bound complex with the enzyme relatively slowly, reactions were initiated by adding the substrate, m^7Guo, to a cuvette in which the enzyme was incubated with the inhibitor, as described in Example 1.
Data analysis was also performed as described in this Example. The range of substrate concentrations tested was 10-200 μM or 10-280 μM (shown in FIG. 4), and the range of inhibitor concentrations was chosen according to the observed degree of inhibition of the reaction, in order to obtain a significant degree of inhibition that allows determination of the inhibition mechanism and determination of inhibition constants (see FIG. 4). […]

H. pylori strain 26695 = assay: Growth curve method / MIC in liquid culture, strain 26695; format: cell-based, Helicobacter pylori; settings: 2.5 mM; strain not stated, method of Example 3
Description: The representative PNP inhibitor from H. pylori included in this study was immucillin A. The experiment was conducted using the growth curve method (two-fold serial dilutions in liquid medium). The tested H. pylori strains were cultured in Petri dishes with BHI solid medium supplemented with 10% FBS and 1% H. pylori Selective Supplement antibiotic kit, in anaerostats under microaerophilic conditions (5% 02, 10% CO2, 85% N2) at 37° C. for 3 days. Liquid culture of H. pylori was conducted overnight with shaking at 37° C. under microaerophilic conditions in BHI medium supplemented with 10% FBS and 1% H. pylori Selective Supplement antibiotic kit. Subsequently, for the essential experiment of determining the minimum inhibitory concentration (MIC), double strengthened liquid BHI medium was prepared, that is, supplemented with 20% FBS and a 2% set of H. pylori Selective Supplement antibiotics.
Bacterial proliferation inhibition experiments were carried out in 24-deep-well 2 ml flat-bottomed plates at a solution volume per well of 0.5 ml. In a single well, double strengthened (relative to the concentration planned for testing) solutions of the test inhibitor and double strengthened liquid BHI medium inoculated with H. pylori (10^4-10^5 CFU/ml in the final volume in the well, corresponding to the optical density of the culture OD600=0.05) were mixed together in a 1:1 ratio.
Kanamycin at a concentration of 25 μg/ml (Irie et al., 1997) was used as a positive control, while Mili-Q deionized water and BHI medium not inoculated with bacteria were used as negative controls. Plates were shaken at 37° C., under microaerophilic conditions. […] After 24 hours, the OD600 of samples containing the negative control, i.e. with Mili-Q deionized water, was about 1.2-1.4, corresponding to a bacterial concentration of about […].
In addition, the method proposed by Knezevic et al. (2018) was used to check whether the observed OD600 was from live bacterial cells. For this purpose, an equal volume of Christensen's double strength urea broth (that is, containing twice the concentration of all components) was added to the wells after incubation, and the plates were additionally incubated for 4 hours in an oxygen atmosphere at 37° C. During incubation, in wells with urease produced by live bacteria, urea is converted to ammonia and carbon dioxide, changing the pH of the solution and thus the colour of the phenol red indicator contained in the medium (from orange to purple).
All experiments were performed in triplicate.
The experiments were carried out using the growth curve method as described in Example 3, and the results obtained for two of the compounds tested are shown in FIG. 5. As the water solubility of the compounds tested, with the exception of 2,6-diCl-Pu, is relatively poor, two experiments were carried out: the first with the maximum concentration possible under the experimental conditions in aqueous solution with a small admixture of DMSO, and the second with higher concentrations that led to partial precipitation of the compound.
The antibacterial activity of two compounds, mefloquine (in the form of hydrochloride) and quinine, described in the literature as potent in vitro inhibitors of the PNP enzyme from Plasmodium falciparum (Dziekan et al., 2019), was tested. Using a two-fold serial dilution method in liquid medium (as described in Example 3), the MIC values for mefloquine and quinine were determined against clinical H. pylori strains resistant to MTZ, CLR and MTZ+CLR (M26, M91, M92 and M93), as well as the reference H. pylori strain 26695. Four clinical H. pylori strains isolated from adults, from primary infections (the subjects had never previously been treated against H. pylori infection) were tested. These strains come from the collection of the Department of Microbiology of the Medical University of Wroclaw and were obtained due to collaboration with Prof. Grażyna Gościniak, MD, PhD. […]

[3] = molecular target: T2, PNP from H. pylori strain 26695; settings: formycins; Wojtyś et al., 2021; read-out: inhibition constant; cited from earlier work
PNP from E. coli [4] = molecular target: T1, PNP from E. coli; settings: read-out: inhibition constant; cited from earlier work
human PNP = molecular target: T3, human PNP (Homo sapiens, UniProt P00491); settings: Bzowska et al., 2000; cited from earlier work
T3 sequence (P00491 1-289): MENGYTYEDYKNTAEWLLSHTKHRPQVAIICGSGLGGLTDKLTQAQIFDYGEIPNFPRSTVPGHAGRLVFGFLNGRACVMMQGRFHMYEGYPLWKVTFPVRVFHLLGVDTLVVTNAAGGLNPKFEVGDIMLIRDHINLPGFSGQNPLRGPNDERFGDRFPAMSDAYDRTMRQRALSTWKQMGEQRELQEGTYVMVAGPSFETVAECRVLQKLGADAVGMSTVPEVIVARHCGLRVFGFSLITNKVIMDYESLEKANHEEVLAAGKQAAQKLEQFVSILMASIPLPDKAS

[5] = molecular target: T4, AdSS from H. pylori strain 26695 (Helicobacter pylori, UniProt P56137); assay: AdSS enzyme activity assay (adenylosuccinate formation, 280 nm); format: biochemical
T4 construct: made in house; host or cells: E. coli BL21 (DE3)
T4 sequence (P56137 1-411): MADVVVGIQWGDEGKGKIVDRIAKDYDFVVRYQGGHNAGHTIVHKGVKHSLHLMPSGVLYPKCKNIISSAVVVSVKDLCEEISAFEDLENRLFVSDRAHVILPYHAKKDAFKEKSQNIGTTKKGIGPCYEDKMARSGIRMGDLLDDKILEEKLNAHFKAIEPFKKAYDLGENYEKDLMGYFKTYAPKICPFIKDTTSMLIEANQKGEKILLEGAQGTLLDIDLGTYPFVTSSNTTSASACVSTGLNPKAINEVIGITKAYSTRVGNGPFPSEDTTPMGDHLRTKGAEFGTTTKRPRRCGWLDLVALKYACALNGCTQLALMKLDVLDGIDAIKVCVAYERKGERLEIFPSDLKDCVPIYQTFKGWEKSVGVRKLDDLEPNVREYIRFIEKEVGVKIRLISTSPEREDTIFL
Description: Enzymatic activity measurements were carried out in the similar manner as described in Bubić et al. (2018), at 25° C., in cuvettes with an optical path length of 1 cm containing 1 ml of reaction mixture consisting of 20 mM Hepes/NaOH buffer pH 7.7, 1 mM MgSO4 and the substrates, GTP, IMP and Asp. Saturating concentrations of substrates, namely GTP: 0.06 mM, IMP: 0.15 mM and Asp: 5 mM, were used to measure specific activity. The extinction coefficient at 280 nm of 1.17×10^4 M^−1 cm^−1 (adenylosuccinate formation) was used to calculate the concentration of the product formed (Rudolph and Fromm 1969). One unit (U) of AdSS specific activity is defined as μmol of adenylosuccinate produced per minute at 25° C. Specific activity is expressed as units of enzymatic activity per mg of protein (U/mg).
Inhibition of AdSS by PLP was examined first at saturation with all enzyme substrates and with increasing concentrations of the PLP inhibitor.
To determine the extent to which PLP-induced inactivation develops over time, the enzyme at low concentration (0.022 μM) was incubated at 25° C. in Hepes/NaOH buffer pH 7.0, in the presence of 1.11 mM MgSO4, 5.55 mM Asp, 167 μM IMP and PLP at various concentrations (ranging between 0.03 μM and 8.1 μM). The mixture contained all components necessary for the reaction with the exception of GTP, which, according to Dong and Fromm (1990), competes with PLP. Aliquots of 900 μl were taken from the incubated mixture at specified time intervals, placed in a cuvette and 100 μl of 0.6 mM GTP solution was added to initiate the reaction. The enzyme activity was determined and analysed in the known manner as described above.
Exponential decays were fitted to the data obtained for each concentration and the reaction rate constant of the inactivation process, k, and the residual enzymatic activity observed when the system reached equilibrium, A∞, were obtained as fitting parameters. From these parameters, the half-life of the inactivation process activity, t1/2, was calculated. The dependence of these three parameters on PLP concentration is shown in the lower panel of FIG. 12.
The inhibition of AdSS from H. pylori by pyridoxal (PI-h) was studied at saturation with all enzyme substrates and with increasing concentrations of the inhibitor, similar to that for PLP in Example 10a).

H. pylori = settings: Wojtyś et al., 2021; cited from earlier work

T2 sequence (P56463 whole entry): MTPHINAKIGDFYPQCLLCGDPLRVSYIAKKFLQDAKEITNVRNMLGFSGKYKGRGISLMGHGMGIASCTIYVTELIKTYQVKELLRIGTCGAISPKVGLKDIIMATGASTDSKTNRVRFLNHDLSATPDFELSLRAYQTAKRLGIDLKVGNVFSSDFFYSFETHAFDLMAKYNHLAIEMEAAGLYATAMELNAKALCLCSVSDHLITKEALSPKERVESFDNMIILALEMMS
T1 sequence (P0ABP8 2-239): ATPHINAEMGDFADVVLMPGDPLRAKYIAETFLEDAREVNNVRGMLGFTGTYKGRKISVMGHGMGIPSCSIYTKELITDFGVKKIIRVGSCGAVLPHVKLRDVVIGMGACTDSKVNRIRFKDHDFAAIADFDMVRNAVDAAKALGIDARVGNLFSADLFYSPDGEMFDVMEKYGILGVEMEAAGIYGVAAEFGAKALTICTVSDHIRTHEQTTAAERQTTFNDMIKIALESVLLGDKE

| SMILES | stronger inhibition than formycin A (PNP from E. coli [1]) [fold] | Ki [2] [µM] | inhibition of H. pylori growth (% of the growth observed without the inhibitor) (H. pylori strain 26695) | Ki [3] [µM] | Ki (PNP from E. coli [4]) [µM] | inhibition of human PNP (human PNP) | inhibition of AdSS from H. pylori [5] | inhibition of proliferation of H. pylori (H. pylori) |
| --- | --- | --- | --- | --- | --- | --- | --- | --- |
| Cn1cnc2c([C@@H]3O[C@H](CO)C(O)[C@@H]3O)nnc-2c1N (stereo partly shown) [6-methylformycin A] | 10 | – | – | – | – | – | – | – |
| Nc1ncnc2c([C@@H]3O[C@H](CO)[C@@H](O)[C@H]3O)[nH]nc12 [formycin A] | – | 14 | 50% | 14 | ~5 | not an inhibitor | – | – |
| O=c1[nH]cnc2c([C@@H]3O[C@H](CO)[C@@H](O)[C@H]3O)n[nH]c12 [formycin B] | – | 1 | very weak inhibition | 1 | ~5 | very weak inhibitor | – | – |
| O=CN(O)CC(=O)O [hadacidin] | – | – | – | – | – | – | strongly inhibits | does not inhibit the proliferation of bacteria |
